Assay results: patent US9468662B2, “Use of the PAT nonapeptide in the treatment and prevention of neurodegenerative diseases” (ORPHIT, priority 2010, dated 2016)
No end group written: not given here.

Columns and labels:
[1] = test system: rat primary dopaminergic neurons; assay: Cellular model of Parkinson's disease, survival of rat primary dopaminergic neurons after 6-hydroxydopamine injury; format: cell-based
Text: 6-hydroxydopamine (6-OHDA) is a selective catecholaminergic neurotoxin that is not only used as a pharmacological agent able to trigger PD-like stigmata (Sauer H. and Oertel W H Neuroscience 1994; 59: 401 and Cass W A et al. Brain Res. 2002; 938: 29) but also likely corresponds to a natural dopaminergic catabolite that accumulates in PD-affected brains and that appears to strongly contribute to this pathology (Jellinger K. et al. J. Neural. Transm. 1995; 46: 297). For this reason, 6-OHDA-induced dopaminergic neurotoxicity in mice is widely used as a model for PD research. Because 6-OHDA also induces neurodegeneration of dopaminergic neurons in vitro, it provides a useful model of PD. In this in vitro test mesencephalic dopaminergic neurons are exposed to 6-OHDA injury. […] After 24 h of intoxication, viable dopaminergic neurons are visualized and quantified by staining with a monoclonal Anti-Tyrosine Hydroxylase (TH) antibody. Tyrosine Hydroxylase is the first and rate-limiting enzyme involved in the biosynthesis of catecholamines like dopamine and norepinephrin from Tyrosine and has a key role in the physiology of adrenergic neurons. Tyrosine hydroxylase is commonly used as a marker for dopaminergic neurons, which is particularly relevant for research in Parkinson's disease.
Rat dopaminergic neurons were cultured as described by Schinelli et al. J. Neurochem. 1988; 50: 1900 and Visanji N P et al. FASEB J. 2008; 22: 2488. Briefly, the midbrains obtained from 15-day old rat embryos (Janvier, France) were dissected under a microscope. The embryonic midbrains were removed and placed in ice-cold medium of Leibovitz (L15) containing 2% of Penicillin-Streptomycin (PS) and 1% of bovine serum albumin (BSA). The ventral portion of the mesencephalic flexure, a region of the developing brain rich in dopaminergic neurons, was used for the cell preparations.
The midbrains were dissociated by trypsinisation for 20 min at 37° C. (Trypsin EDTA 1X). […] Viable cells were counted in a Neubauer cytometer using the trypan blue exclusion test. […]

[2] = test system: rat primary GABAergic medium spiny neurons; assay: Cellular model of Huntington's disease, survival of rat primary GABAergic medium spiny neurons after glutamate injury; format: cell-based
Text: GABAergic medium spiny neurons (MSNs) in the striatum represent the mostly affected cell population in HD brain. Being the main neuronal cell type of the striatum (85% in humans), GABAergic MSNs play a central role in the clinical manifestation of HD. GABA is viewed as the neurotransmitter that inhibits spontaneous involuntary movements, therefore loss of GABAergic MSNs is responsible for chorea development and other involuntary movements. The exquisite vulnerability of MSNs of striatum to degeneration in HD is caused by glutamate excitotoxicity that leads to neuronal dysfunction and death. Excessive activation of NMDA glutamate receptors is observed in post-mortem HD brain tissue (Kumar P. et al. Pharmacol. Rep. 2010; 62: 1). […] After 24 h of intoxication, viable GABAergic neurons are visualized and quantified by staining with a monoclonal anti-Glutamic Acid Decarboxylase antibody (specific for isoform GAD67). […]
For each condition, 30 pictures per well were acquired (representing 80% of the total surface of the well) using ImageXpress (Molecular device) equipped with a LED at 20× magnification. […] The number of GAD67-positive neurons was automatically analyzed using MetaXpress software (Molecular device). […] All values were expressed as mean+/−SEM (s.e. mean) (n=6 wells per condition per culture).

[3] = Crossing of the blood-brain barrier, inferred from activity by intra-peritoneal route; format: in vivo; details: concluded from biological activity after intra-peritoneal administration
Text: To cross the BBB, persons skilled in the art know that the molecular and physicochemical properties of the molecule must fulfill the 5 criteria described by Lipinski et al. (1997). Adv Drug Del Rev 23: 3-25 (amongst them a low molecular weight, its hydrophobicity, its charge etc. . . . ).

Molecule: NCCc1cc(O)c(O)cc1O [6-OHDA, 6-hydroxydopamine, reference compound]
- reduction of survival of TH-positive dopaminergic neurons compared to control culture conditions ([1]; 6-OHDA 20 μM, 24 h, no protective pre-treatment): 31%

Molecule: N[C@@H](CCC(=O)O)C(=O)O [glutamate, reference compound]
- reduction of survival of GAD67-positive MSN compared to control culture conditions ([2]; glutamate 10 μM, 20 min, read after 24 h, no protective pre-treatment): 38%

Molecule: EAKSQGGSD [PAT peptide, Glu-Ala-Lys-Ser-Gln-Gly-Gly-Ser-Asp (EAKSQGGSD)]
- survival of TH-positive dopaminergic neurons (% of control condition) ([1]; PAT 10 nM, 1 h pre-incubation, then 6-OHDA 20 μM for 24 h): 100%
- passage across the blood-brain barrier [3]: crosses the BBB

B1: BNDF: survival promoting brain derived neurotrophic factor used as a positive control (protein, UniProt P23560 19-247, looked up)
Neurotrophic factor BDNF …: APMKEANIRGQGGLAYPGVRTHGTLESVNGPKAGSRGLTSLADTFEHVIEELLDEDQKVRPNEENNKDADLYTSRVMLSSQVPLEPPLLFLLEEYKNYLDAANMSMRVRRHSDPARRGELSVCDSISEWVTAADKKTAVDMSGGTVTVLEKVPVSKGQLKQYFYETKCNPMGYTKEGCRGIDKRHWNSQCRTTQSYVRALTMDSKKRIGWRFIRIDTSCVCTLTIKRGR
- protection of TH-positive neurons from 6-OHDA-induced cell death ([1]; BDNF 50 ng/mL (2 nM), 1 h pre-incubation, 6-OHDA 20 μM 24 h): fully protected
- survival of GAD67-positive neurons (cell survival, % of control) ([2]; BDNF 50 ng/mL (2 nM), 1 h pre-incubation, glutamate 10 μM 20 min, then 24 h): 81%
